ChEMBL document CHEMBL1140882, “Pestalofones A-E, bioactive cyclohexanone derivatives from the plant endophytic fungus Pestalotiopsis fici” (Bioorg Med Chem, 2009)
Values after ≈ are worked out from the molar mass of the structure shown. Where a name gives a salt, the structure may show the parent alone.

Legend:
Aspergillus fumigatus = assay: Antimicrobial activity against Aspergillus fumigatus ATCC 10894; assay type: functional, organism-based
[1] = system: Human immunodeficiency virus 1; assay: Antiviral activity against HIV1 replication in human C8166 cells by ELISA; assay type: functional, organism-based; conditions: Human immunodeficiency virus 1, C8166
[2] = Cytotoxicity against human C8166 cells after 4 days by MTT assay; assay type: cell-based

| Structure (SMILES) | IC50 (Aspergillus fumigatus) [µM] | MIC (Aspergillus fumigatus) [µM] | EC50 [1] [µM] | CC50 at 96 h [2] [µM] |
| --- | --- | --- | --- | --- |
| OC(Cn1cncn1)(Cn1cncn1)c1ccc(F)cc1F [FLUCONAZOLE] | 7.35 | 163 (≈ 50 µg/mL) | – | – |
| CC(C)(C)NC(=O)[C@@H]1CN(Cc2cccnc2)CCN1C[C@@H](O)C[C@@H](Cc1ccccc1)C(=O)N[C@H]1c2ccccc2C[C@H]1O [INDINAVIR SULFATE] | – | – | 0.00881 | – |
| CC(C)=C/C=C1\C[C@H](O)[C@@H]2O[C@]2(CC=C(C)C)C1=O [PESTALOFONE A] | – | – | 90.4 | > 200 |
| C=C(C)/C=C1/C(=C2\C[C@H](O)[C@@H]3O[C@]3(CC=C(C)C)[C@@H]2O)C=C(C)C[C@@]12C[C@H](O)[C@@H]1O[C@]1(CC=C(C)C)C2=O [PESTALOFONE B] | – | – | 64 | > 200 |
| C=C(C)/C=C1/C(=C2\C[C@H](O)[C@@H]3O[C@]3(CC=C(C)C)C2=O)C=C(C)C[C@@]12C[C@H](O)[C@@H]1O[C@]1(CC=C(C)C)C2=O [PESTALOFONE C] | 1.1 | 35.3 (≈ 18.4 µg/mL) | – | – |
| COC(=O)c1cc(OC)cc2oc3c(CC(=O)[C@@]4(O)C[C@H](O)[C@@H]5O[C@]5(CC=C(C)C)[C@@H]4O)c(C)c(CC(C)=O)c(O)c3c(=O)c12 [PESTALOFONE E] | 0.9 | 31.2 (≈ 19.5 µg/mL) | 93.7 | > 200 |
